# Results reported in patent US7256172B1, “Method of treatment and agents useful for same” (The University of Melbourne, priority 1998, dated 2007).
# No end group written: not given here.
# How the values were obtained:
# monkey small bronchi = test system: monkey small bronchi
# Excerpt: The experimental details are similar to those for the mouse isolated bronchi. Briefly, approximately 2 mm long rings of small bronchi were mounted on wire hooks. In each trace, half log concentrations are not depicted for clarity.
# [1] = test system: human bronchial epithelium; conditions: after amiloride
# Protocol: Human airways were obtained from discarded sections of lungs of patients undergoing lobectomy operations at the Royal Melbourne Hospital, Melbourne, Australia usually for lung cancer. The dissection and set up were as described above for the mouse trachea.
# (§1) After an equilibration time of 30 min, compounds for testing and drugs to elucidate the mechanism of any changes in Isc to the test compounds were added to either side of the tracheal epithelium (ie to either bath). Compounds used for increasing Isc were PGE2, adenosine 5′-triphosphate (ATP), uridine 5′-triphosphate (UTP) and the PAR1-, PAR2- and PAR4-activating peptides, SFLLRN (SEQ ID NO:1) and SLIGRL (SEQ ID NO:2) and GYPGQY (SEQ ID NO:6), respectively. These stimulants were added cumulatively with controls for any time-dependent tachyphylaxis.
# [2] = test system: human coronary artery rings; conditions: for maximum (Rmax % contraction reversal): endothelium-intact, control; for relaxation after removal of the endothelium: endothelium-denuded
# [3] = biological target: PAR1-like receptor ("atypical" thrombin receptor) of human coronary artery endothelial cells (human); test: cell-based or functional assay
# PAR1 = PAR1 (Homo sapiens, UniProt P25116); conditions: concentrations up to 1 mM, human platelets; cited from earlier work
# guinea-pig taenia coli = conditions: apamin (100 μM)
# Protocol: 2 cm strips of teania coil with intact Auerbach's plexus, but which had been stripped of the mucosa, were suspended in Kreb's solution under 1 g passive tension, and contracted with histamine (1 μM) to induce active tension.
# mouse trachea = conditions: for increase in Isc in presence of indomethacin: cyclooxygenase inhibitor indomethacin; for change in Isc: luminally applied
# Excerpt: Mice were killed by a lethal overdose of sodium pentobarbitone and the tracheae rapidly excised. The trachea was opened longitudinally through the ventral cartilage rings to make a fiat sheet. Each sheet of trachea was mounted between two perspex chambers so that the mucosal (luminal) and submucosal and bathed with warmed, oxygenated Krebs' solution, independently on each side. Electrodes in the chambers allowed recordings of transepithelial potential difference using an amplifier. The tissue was voltage clamped at 0 mV by passing a current from the amplifier via another set of electrodes in the chambers. The amount of current required to maintain voltage at 0 mV is defined as the short circuit current (Isc) and is conventionally used as a measure of all ionic fluxes across the preparation.
# as §1
# [4] = biological target: mouse protease activated receptor 1 (PAR1), in mouse bronchus and trachea tissue (mouse) (UniProt P30558); test: cell-based or functional assay
# [5] = test system: isolated human bronchioles
# Protocol: Small (500 μm) bronchioles were carefully dissected from discarded sections of human left lung which had been excised at surgery from two male lung cancer patients (Royal Melbourne Hospital, Melbourne, Australia).
# Dissection of these bronchioles required a fine-dissecting microscope and an assistant to continually flood the preparation with cold oxygenated Krebs solution to remove air bubbles and keep the tissue viable. Bronchioles approximately 2 mm in length were then mounted on […] diameter stainless wires in a Krebs solution-filled myograph chamber, as described for the mouse bronchus preparation above.
# mouse bronchial rings = conditions: for response of epithelium-intact bronchi: contracted to approximately 40% Fmax with carbachol; for response in presence of cyclooxygenase inhibitors: indomethacin (3 μM) or aspirin (100 μM)
# Excerpt: (§2) The right and left main bronchi and their first order branches of specific pathogenfree (SPF) Balb/c mice (15–20 g; either sex), Hartley tricolour guinea-pigs (300–400 g; male) and Sprague-Dawley rats (200–350 g; either sex), all killed by either cervical dislocation or overdosed (i.p.) with sodium pentobarbitone, were cleared of surrounding connective tissue, nerves and blood vessels under a dissecting microscope and placed in cold, carbogenated (95% v/v O2,5% v/v CO2) Krebs solution (Kemp and Cocks, 1997). Human airway preparations (0.5–1 mm in external diameter) were dissected from lungs of cancer patients undergoing thoracotomy at The Royal Melbourne Hospital, Melbourne, Australia. The epithelium was removed from some bronchi either by mechanical abrasion of the luminal surface (guinea-pig) or by brief, gentle intraliminal flushing of the airways with Krebs containing 0.1% v/v Triton-X100 (mouse and rat). In each case, removal of the epithelium was verified histologically in 8 μm formalin-fixed, paraffin sections stained with haemotoxylin and eosin. Ring segments (approximately 2 mm long) of bronchi and bronchioles were mounted in Krebs (37° C.) on stainless steel wires (40 μm) in dual channel (5 ml) Mulvany-Halpern myographs (JP Trading, Aarhus, Denmark) to record changes in isometric force (Kemp and Cocks, 1997). After equilibration at a passive force between 0.2 g and 0.3 g, tissues were contracted to their maximum levels of active force (Fm.),) with acetylcholine (30 μM), thoroughly washed with Krebs and allowed to return to baseline. Various drugs or their vehicles were then added and 30 min later all tissues were contracted to approximately 40% Fmax with titrated concentrations of carbachol (10–500 nM). The L-type voltage-operated Ca^2+ channel inhibitor, nifedipine (0.3 μM) was added to all mouse and rat tissues after obtaining Fmax to control characteristic phasic contractile activity with carbachol.
# If no response occurred the tissues were then exposed to cumulative concentrations of either SLIGRL—NH2 (SEQ ID NO:2) or SFLLRN—NH2 (SEQ ID NO:1) (0.1–30 μM).
# (§3) Results are presented as mean±s.e mean and pEC50 (sensitivity) values were calculated by fitting concentration-response curves to a four parameter logistic function (Kemp and Cocks, 1997) using Graphpad Prism (version 2.0). Statistical comparison of mean pEC50 and maximum response (Rmax) values were compared by two-tailed unpaired Student's t-tests or one way analysis of variance (ANOVA) with Tukey-Kramer's t-tests for multiple comparisons. P<0.05 was accepted as significant. Unless specified, all averaged data are from n>5 experiments.
# Mouse bronchus preparations were carefully mounted horizontally on fine (40 μm) stainless steel wires attached to the jaws of a Mulvany-Halpem myograph. After 60 min at 37° C., all rings were stretched to 0.5 g passive force, which had been determined in preliminary experiments to be optimal, and allowed to recover from that stretch for a further 30 min. Maximum contraction (Fmax) in each tissue was then determined with exogenously applied acetylcholine (ACh; 30 μM) followed by washout. A further 30 min equilibration time was allowed before the tissues were actively contracted to between 20% and 60% of their individual Fm.” values with titrated concentrations of carbachol (10–100 nM). […] In some cases, tissues were treated with a range of drugs prior to contraction to approximately […] Fmax. These included the cyclooxygenase inhibitors indomethacin and aspirin, the nitric oxide (NO) synthase inhibitor N′-nitro-L-(L-NOARG), the NO scavenger oxyhaemoglobin (Hb0), and the L-voltage-operated Cat' channel inhibitor nifedipine.
# After an initial passive stretch to 0.5 g (Ti) and recovery, each ring was contracted with acetylcholine (Ach; 30 μM). The contraction was taken as the tissue maximum and referred to as Fmax.
# rat isolated bronchi = test system: rat isolated bronchi
# Excerpt: as §2
# as §3, with “All cumulative responses (relaxations and contractions) were normalised as percentages of the initial level of active force to carbachol. Results” for “Results”
# human distal colon = test system: human distal colon
# Protocol: Human distal colon strips obtained at bowel resection were suspended at 1 g passive isometric force and contracted with substance P (30 μM) to maintain a steady level of active tension.
# [6] = biological target: T1, mouse protease activated receptor 2 (PAR2), in mouse bronchus and trachea tissue (mouse) (UniProt P55086); test: cell-based or functional assay
# T1 sequence (looked up): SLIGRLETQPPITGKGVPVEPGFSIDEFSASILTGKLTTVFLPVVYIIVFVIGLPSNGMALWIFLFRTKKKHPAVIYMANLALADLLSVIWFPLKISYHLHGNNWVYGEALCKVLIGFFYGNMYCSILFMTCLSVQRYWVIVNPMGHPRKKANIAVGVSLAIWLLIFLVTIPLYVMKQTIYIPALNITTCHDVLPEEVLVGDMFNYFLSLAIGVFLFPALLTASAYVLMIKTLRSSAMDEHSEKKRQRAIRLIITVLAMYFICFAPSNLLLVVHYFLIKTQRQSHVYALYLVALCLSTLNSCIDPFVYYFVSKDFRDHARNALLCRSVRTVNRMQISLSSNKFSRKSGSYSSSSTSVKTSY
# [7] = biological target: guinea-pig protease activated receptor 2 (PAR2), in guinea-pig bronchus tissue (guinea-pig); test: cell-based or functional assay
# [8] = biological target: T2, rat protease activated receptor 2 (PAR2), in rat airway tissue (rat) (UniProt Q63645); test: cell-based or functional assay
# T2 sequence (looked up): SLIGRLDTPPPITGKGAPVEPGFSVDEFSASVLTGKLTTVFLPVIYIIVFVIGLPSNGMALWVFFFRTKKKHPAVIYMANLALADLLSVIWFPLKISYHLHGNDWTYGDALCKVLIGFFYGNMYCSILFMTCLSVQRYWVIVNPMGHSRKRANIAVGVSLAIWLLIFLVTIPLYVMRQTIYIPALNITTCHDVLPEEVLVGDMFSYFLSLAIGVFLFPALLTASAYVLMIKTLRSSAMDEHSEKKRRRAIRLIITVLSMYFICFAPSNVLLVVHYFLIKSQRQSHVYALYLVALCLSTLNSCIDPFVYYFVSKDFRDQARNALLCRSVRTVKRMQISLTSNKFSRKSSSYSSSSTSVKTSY
# mouse protease activated receptor 1 (PAR1), in mouse bronchus and trachea tissue (mouse), sequence (P30558 42-430): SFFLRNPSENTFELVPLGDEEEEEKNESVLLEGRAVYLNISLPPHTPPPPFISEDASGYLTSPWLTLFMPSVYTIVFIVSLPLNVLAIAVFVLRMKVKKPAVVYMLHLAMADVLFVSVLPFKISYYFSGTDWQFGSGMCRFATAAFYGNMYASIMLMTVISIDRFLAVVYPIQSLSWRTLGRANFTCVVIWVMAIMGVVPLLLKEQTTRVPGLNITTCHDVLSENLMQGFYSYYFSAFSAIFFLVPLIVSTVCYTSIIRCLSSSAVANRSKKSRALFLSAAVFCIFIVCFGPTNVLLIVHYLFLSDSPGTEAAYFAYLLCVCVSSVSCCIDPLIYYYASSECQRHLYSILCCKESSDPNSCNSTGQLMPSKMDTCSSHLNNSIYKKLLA
# PAR1, sequence (P25116 22-425): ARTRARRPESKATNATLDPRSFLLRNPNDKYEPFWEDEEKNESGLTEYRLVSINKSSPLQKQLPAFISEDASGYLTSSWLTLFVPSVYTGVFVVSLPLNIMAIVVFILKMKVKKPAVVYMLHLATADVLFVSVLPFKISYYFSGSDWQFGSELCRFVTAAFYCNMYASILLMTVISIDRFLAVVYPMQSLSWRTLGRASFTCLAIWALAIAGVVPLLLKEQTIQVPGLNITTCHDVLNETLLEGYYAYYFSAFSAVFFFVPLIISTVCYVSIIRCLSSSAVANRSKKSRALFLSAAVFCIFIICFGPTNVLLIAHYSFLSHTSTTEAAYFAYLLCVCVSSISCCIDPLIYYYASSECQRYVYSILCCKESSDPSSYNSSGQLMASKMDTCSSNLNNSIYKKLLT
compound,measurement,setting,value
SLIGKV-NH2,effect on monkey small bronchi,monkey small bronchi,smooth muscle relaxing effects
same,change in Isc,[1],relatively poor response
same,maximum (Rmax % contraction reversal),[2],39.9±11.0%
"trypsin (bovine pancreas, Worthington Biochem) (from UniProt P00760 24-246) (enzyme)","pEC50 (sensitivity), endothelium-dependent relaxation of U46619-contracted human coronary artery rings",[3],1.7 log U/ml
SLIGKVD-NH2,activation of PAR1,PAR1,does not activate PAR1
"alpha-thrombin (bovine serum, Sigma) (from UniProt P00735 318-625) (enzyme)","pEC50 (sensitivity), endothelium-dependent relaxation of U46619-contracted human coronary artery rings",[3],2.5 log U/ml
"Nc1ncnc2c1ncn2[C@@H]1O[C@H](COP(=O)(O)OP(=O)(O)OP(=O)(O)O)[C@@H](O)[C@H]1O [ATP, adenosine 5′-triphosphate]",relaxation in presence of apamin,guinea-pig taenia coli,no relaxation
same,increase in Isc in presence of indomethacin,mouse trachea,unaffected
same,change in Isc,mouse trachea,rapid initial rise in Isc usually followed by some degree of recovery until a steady plateau was reached
"SFLLRN-NH2 (human PAR1 tethered ligand sequence, thrombin receptor-activating peptide)","pEC50, relaxation of carbachol-contracted mouse bronchial rings",[4],5.6 -log M
same,"pEC50, relaxation of first generation branches of the mouse main bronchi",[4],5.5 -log M
same,"pEC50, relaxation of human coronary artery after desensitisation to thrombin and trypsin",[3],6.4 -log M
same,"pEC50, relaxation of human coronary artery, untreated tissue",[3],7 -log M
same,"pEC50, relaxation of precontracted human coronary artery segments",[3],6.9 -log M
trypsin,effect on monkey small bronchi,monkey small bronchi,smooth muscle relaxing effects
same,response of human bronchioles,[5],activity dependent relaxation that was reversed by indomethacin
same,response of epithelium-intact bronchi,mouse bronchial rings,activity-dependent relaxation
same,response in presence of cyclooxygenase inhibitors,mouse bronchial rings,blocked by indomethacin
same,relaxation after removal of the endothelium,[2],abolished
same,maximum (Rmax % contraction reversal),[2],88.1±2.9%
thrombin,response of rat bronchial rings,rat isolated bronchi,small relaxation
same,effect on monkey small bronchi,monkey small bronchi,smooth muscle relaxing effects
same,response of human bronchioles,[5],activity dependent relaxation that was reversed by indomethacin
same,response of epithelium-intact bronchi,mouse bronchial rings,only poor indomethacin sensitive relaxation at high concentrations
same,response in presence of cyclooxygenase inhibitors,mouse bronchial rings,converted to contractions by indomethacin
same,relaxation after removal of the endothelium,[2],abolished
same,maximum (Rmax % contraction reversal),[2],88.9±4.9%
same,response of human distal colon,human distal colon,did not result in relaxation
"SLIGRL-NH2 (mouse PAR2 tethered ligand sequence, PAR2 activating peptide)","pEC50 (sensitivity), relaxation of carbachol-contracted mouse bronchial rings",[6],5.6 -log M
same,"pEC50, relaxation of first generation branches of the mouse main bronchi",[6],5.1 -log M
same,"pEC50, epithelium-dependent relaxation of guinea-pig isolated bronchi",[7],5.4 -log M
same,"pEC50, epithelium-dependent relaxation of rat isolated bronchi",[8],5.5 -log M
same,"pEC50, relaxation of rat bronchioles",[8],5.1 -log M
"prostaglandin E2 [PGE2, reference compound]",response of epithelium-intact bronchi,mouse bronchial rings,potent and maximum relaxation
same,relaxation after removal of the epithelium,mouse bronchial rings; epithelium removed with 0.1% v/v Triton X-100,could still sensitively relax
same,maximum relaxation (Rmax),"mouse bronchial rings; main bronchi with epithelium, % of initial force to carbachol",100%
same,sensitivity (pEC50),"mouse bronchial rings; main bronchi with epithelium, contracted with carbachol",8.2±0.1 −log M
same,increase in Isc in presence of indomethacin,mouse trachea,unaffected
same,change in Isc,mouse trachea,rapid initial rise in Isc usually followed by some degree of recovery until a steady plateau was reached
